Experimental data: patent US20230134376A1, “METHOD FOR QUANTITATIVE IMAGING OF THE METABOLIC STATUS OF A LESION” (priority 2020, published 2023)

How the values were obtained:
NADH/NAD+ ratio = assay: FLIM phasor quantification of NADH/NAD+ ratio (anaerobic glycolysis) in incisional skin wound; type: in vivo, mice (C57Bl6/J); conditions: for slope of gradient of NADH/NAD+ ratio vs distance from wound: untreated −0.267±0.06; for NADH/NAD+ ratio in perilesional area vs untreated condition (in words): comparison between first 10 values of each condition, t-test; for line slope of linear regression of NADH/NAD+ ratio vs untreated (in words): deviation between slopes test
Source text: FIG. 2: Measurement of anaerobic glycolysis in wound by FLIM quantification of NADH/NAD^+ ratio. Phasor analysis of free and bound NADH fluorescence allows a quantification of their relative increase. A, map of a gradient of NADH/NAD+ ratio (grey). Wound margin is highlighted with a dashed line. All scale bars 100 μm. B, phasor analysis of FLIM NADH fluorescence. NADH region of the phasor plot was divided in five sub-regions along the major axis and each is associated with an intensity value (0-20, 20-40, 40-60, 60-80, 80-100). […] D, NADH/NAD^+ ratio percentage as a function of distance from wound (grey). […] NADH/NAD^+ ratio is lower in perilesional area of DCA-treated mice (grey line vs grey line of D, comparison between first 10 values of each condition, t-test ****, P<0.0001). n=3 mice.
FIG. 8. Effect of the mitochondrial respiratory chain in the measurement of NADH/NAD^+ ratio as expression of glycolysis in wound. A, NADH/NAD^+ ratio percentage as a function of distance from wound. […] NADH/NAD^+ ratio is lower in perilesional area of Antimycin A-treated mice (bottom graph vs grey line for untreated condition, comparison between first 10 values of each condition, t-test, P<0.0001). […] B, map of a gradient of NADH/NAD+ ratio (grey) in wound in untreated (n=4) or mice treated with Rotenone (n=3) and Antimycin A (n=2). Wound margin is highlighted with a dashed line. All scale bars 20 μm.
On day 1 after wounding, FLIM images were acquired with 2PM and stitched to produce lifetime XYZ mosaics (600-1000 μm wide and 200 μm deep) (FIG. 2a). Common FLIM imaging has slow acquisition times, which are required to collect enough photons to reconstruct a time decay curve. This was compensated by the use of a time correlated single-photon counting (TCSPC) 16-channel parallel detector, with an average counting speed of 80 MHz which allowed faster 3D scanning of the mosaic over lesion area^31. The ratio of free to protein-bound NADH has been known to be associated with the ratio of NAD^+ to NADH in small intestine epithelial cells^32 and breast cancer cells^33. Protein-bound NADH has a complex multi-exponential lifetime decay that has been related to its binding to different enzymes, such as malate dehydrogenase and lactate dehydrogenase^34. Standard approaches revolved on a characterization by fitting with a two-exponential curve, corresponding to a short or long lifetime range. This approximation is however misleading because free and protein-bound NADH have common exponential components and the NADH binding sites with different enzymes cannot be considered^32, 35. In fact, in our case this approach was ineffective to discriminate between untreated and DCA-treated mice (FIG. 7). […] Instead, phasor analysis^32, 36 was used. In accordance with a previous report^37, we designed an analysis that first divides the phasor cloud into five regions (FIG. 2b) corresponding to a gradient of prevailing anaerobic glycolysis in regions of lower lifetimes towards a region where more oxidative phosphorylation occurs. Pixels attributed to each region were then associated to discrete values of decreasing intensity, and therefore quantification of pixel intensity on the resulting image was proportional to the relative increase in anaerobic glycolysis. By linearizing images, we obtained a spatial distribution of anaerobic glycolysis from wound profile (FIG. 2c). At lesion margin, gradient of NADH/NAD^+ ratio corresponded to 29.1±0.4% and decreased until to 2.6±0.1% distance (range of 200-500 μm) from the wound. The decrease was evaluated with a linear regression fitting as the simplest fitting model for testing the overall deviation from zero slope curve (linear regression fitting with a slope of −0.050±0.0016 μm^−1; black line with 95% CL bands; deviation from zero slope test, P<0.0001) (FIG. 2d). An increased anaerobic glycolysis around wound margins was also evident in XZ maximum intensity projection images of the maps (FIG. 2e). […]

excisional skin wound = assay: Full-thickness excisional skin wound healing model, kinetic analysis of wound area; type: in vivo, mice (C57BL/6J); conditions: for DCA-mediated delayed wound closure (measurement of wound area) compared to control mice: single administration 300 mg/Kg i.p. 1 h prior skin wounding
Experimental: FIG. 1: In vivo relevance of the cell metabolic adaptation in skin repair. The excisional skin wound healing model was used. Left, kinetic analysis of skin wound areas was performed. Values represent mean±SD. Right, representative macroscopic images of untreated and DCA treated mice are shown at the indicated days after wounding. Bar, 5 mm. *P<0.05, **P<0.01; Student's t-test. Untreated, n=8; DCA, n=9. One experiment shown out of two performed with similar number of animals.
In order to determine the relevance of wound acidification in healing outcome in vivo, the pyruvate dehydrogenase kinase (Pdk) inhibitor dichloroacetate (DCA) was used in a model of full-thickness excisional skin wounding to promote glucose oxidation over anaerobic glycolysis, thus interfering with local acidosis.
Excisional model of skin injury. A full-thickness excisional skin injury model was performed as previously described^7. Mice were anesthetized with 10 μL/g of weight of Ketamine (final concentration 10 mg/mL) and Xylazine (final concentration 1 mg/mL) in saline buffer. As described^7, a full-thickness wound (from skin to underlying panniculus carnosus) was generated with disposable biopsy punch (8-mm diameter). Gentamicin was immediately applied to limit gross bacterial infections, not evident from histological examination carried out at different time points of the experiment. Mice were optionally treated with a solution of sodium dichloroacetate (DCA; Sigma-Aldrich Corp.), which was injected i.p. in 10-12 weeks-old C57BL/6J with a dosage of 300 mg/Kg 1 h before skin wounding. PBS or saline were used in control mice. As previously described^7, the skin wounds of each mouse were digitally photographed and measured during wound healing by tracing them on a transparency, calculated with the ImageJ-Fiji software, and the variations in time expressed as a percentage of the initial wound area.

Compound	glycolysis in regions distant from the wound (NADH/NAD+ ratio; Rotenone 20 μM local)	slope of gradient of NADH/NAD+ ratio vs distance from wound (NADH/NAD+ ratio; Rotenone 20 μM local (i.d.) 1 h before imaging, P<0.0001)	fraction of anaerobic glycolysis at wound margin (NADH/NAD+ ratio; Rotenone 20 μM local (i.d.), untreated 20.28±0.41%, P>0.05)	NADH/NAD+ ratio in perilesional area vs untreated condition (in words) (NADH/NAD+ ratio)	line slope of linear regression of NADH/NAD+ ratio vs untreated (in words) (NADH/NAD+ ratio; P<0.0001)	slope of gradient of NADH/NAD+ ratio vs distance from wound (NADH/NAD+ ratio; Antimycin A 5 μM i.d. 1 h before imaging, P<0.0001)	glycolysis at wound margin (NADH/NAD+ ratio) (NADH/NAD+ ratio; Antimycin A 5 μM i.d., untreated 20.28±0.41%, P<0.0001)	DCA-mediated delayed wound closure (measurement of wound area) compared to control mice (excisional skin wound; day 1, P=0.005)	DCA-mediated delayed wound closure (measurement of wound area) compared to control mice (excisional skin wound; day 2, P=0.004)	DCA-mediated delayed wound closure (measurement of wound area) compared to control mice (excisional skin wound; day 3, P=0.05)	DCA-mediated delayed wound closure (measurement of wound area) compared to control mice (excisional skin wound; day 4, P=0.02)	DCA-mediated delayed wound closure (measurement of wound area) compared to control mice (excisional skin wound; day 5, P=0.002)	DCA-mediated delayed wound closure (measurement of wound area) compared to control mice (excisional skin wound; day 6, P=0.01)	DCA-mediated delayed wound closure (measurement of wound area) compared to control mice (excisional skin wound; day 7, P=0.03)	wound closure curve compared to mice treated with vehicle alone (excisional skin wound; single administration 300 mg/Kg 1 h prior skin wounding, n=9 vs n=8)	anaerobic glycolysis (NADH/NAD+ ratio) at perilesional area (NADH/NAD+ ratio; DCA 300 mg/Kg i.p., 1 h, mean of the first 10 values, untreated 29.1±0.4%, P<0.0001)	gradient steepness, slope of linear regression of NADH/NAD+ ratio vs distance from wound (NADH/NAD+ ratio; DCA 300 mg/Kg i.p., 1 h, untreated −0.050±0.0016, P<0.0001)	NADH lifetime decays in perilesional regions fitted with a two-exponential decay function, treated vs untreated (NADH/NAD+ ratio; Student t-test, P>0.05)
C=C(C)[C@H]1Cc2c(ccc3c2O[C@@H]2COc4cc(OC)c(OC)cc4[C@@H]2C3=O)O1 [Rotenone]	increased glycolysis in regions distant from the wound	−0.113±0.002 μm^−1	20.08±0.21%	no significant decrease in value	significant reduction in line slope	–	–	–	–	–	–	–	–	–	–	–	–	–
Antimycin A	–	–	–	lower	reduction in line slope	−0.046±0.08 μm^−1	8.37±0.49%	–	–	–	–	–	–	–	–	–	–	–
O=C([O-])C(Cl)Cl.[Na+] [DCA, sodium dichloroacetate]	–	–	–	lower	reduction in line slope	–	–	−28.3%	−27.1%	−22.5%	−24.5%	−30.5%	−20.4%	−17.4%	significantly delayed curve	8.0±0.2%	−0.035±0.0023 μm^−1	could not show significant differences
